US12384753B2, “17-beta-hydroxysteroid dehydrogenase type 13 inhibitors and methods of use thereof” (Enanta Pharmaceuticals, Inc., priority 2021, dated 2025)

Target: Recombinant human HSD17B13 (Homo sapiens (Human), UniProt Q7Z5P4)
Assay: HSD17B13 rapid-fire mass spectrometry assay (RF/MS assay)
Assay type: biochemical
Details: inhibition of HSD17B13; LTB4 10 μM, NAD+ 0.5 mM, RT 3 h; IC50 ranges A-E
Outline: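 Sf9-expressed human HSD17B13 (80 nM) with 10 μM LTB4 and 0.5 mM NAD+, incubated with compound (0–100 μM) for 3 h at RT in Tris pH 7.5/BSA/Tween-20. After formic acid quench, LTB4 conversion to 12-oxo-LTB4 measured by RapidFire MS/MS. IC50 from normalised residual activity, duplicates.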

Chain of Recombinant human HSD17B13 (Q7Z5P4 20-300): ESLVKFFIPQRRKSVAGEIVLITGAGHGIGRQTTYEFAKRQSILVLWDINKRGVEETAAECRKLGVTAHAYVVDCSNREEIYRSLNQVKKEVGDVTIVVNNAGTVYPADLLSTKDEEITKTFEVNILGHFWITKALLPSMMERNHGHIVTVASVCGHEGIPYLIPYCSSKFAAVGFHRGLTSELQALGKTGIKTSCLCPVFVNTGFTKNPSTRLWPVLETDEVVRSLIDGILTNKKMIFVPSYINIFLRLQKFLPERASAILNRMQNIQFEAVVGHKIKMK

| IC50 [nM] | Structure (SMILES) |
| --- | --- |
| 1000 to 100000 | COc1cc(C(=O)O)ccc1NS(=O)(=O)c1csc(N2CCN(C(=O)c3ccccc3)CC2)n1 [Example 287] |
| 500 to 1000 | O=C(O)c1ccc(NS(=O)(=O)c2cnc(-c3ccc(F)cc3)s2)cc1 [Example 60, 4-((2-(4-fluorophenyl)thiazole)-5-sulfonamido)benzoic acid] |
| 100 to 500 | COc1cc(C(=O)O)c(F)cc1NS(=O)(=O)c1csc(-c2cc(F)c(C3CCC(C)(C)CC3)c(F)c2)n1 [Example 517] |
| 100 to 500 | COc1cc(C(=O)O)c(F)cc1NS(=O)(=O)c1cc(-c2ccc([C@H]3CC[C@H](C(F)(F)F)CC3)cc2)ccn1 [Example 641] |
| 100 to 500 | CCCCOc1c(C2=CCC(C(C)C)CC2)ccc(-c2nc(S(=O)(=O)Nc3cc(F)c(C(=O)O)cc3OC)cs2)c1F (centres unmarked) [Example 585] |
| 1000 to 100000 | COc1cc(C(=O)O)ccc1NS(=O)(=O)Nc1nc2ccc(-c3ccc(F)cc3)cc2s1 [Example 329] |
| 500 to 1000 | COc1cc(C(=O)O)ccc1NS(=O)(=O)c1csc(-c2ccccc2C(F)(F)F)n1 [Example 127] |
| < 100 | COc1cc(C(=O)O)c(F)cc1NS(=O)(=O)c1csc(-c2ccc([C@H]3CC[C@H](C(C)(C)C)CC3)cc2)n1 [Example 762] |
| < 100 | COc1cc(C(=O)O)c(F)cc1NS(=O)(=O)c1cnc(-c2ccc(C3CCC(C)(C)CC3)cc2)s1 [Example 764] |
| 100 to 500 | CCC1CCC(c2ccc(-c3nc(S(=O)(=O)Nc4cc(F)c(C(=O)O)cc4OC)cs3)c(C(F)(F)F)c2)CC1 (centres unmarked) [Example 786] |
| 500 to 1000 | O=C(O)c1ccc(NS(=O)(=O)c2cnc(-c3ccc(F)cc3)s2)cc1O [Example 107] |
| 1000 to 100000 | O=C(O)c1ccc(NS(=O)(=O)c2ccc(F)cc2)cc1 [Example 3] |
| 1000 to 100000 | COc1cc(C(=O)O)ccc1NS(=O)(=O)c1cccc(-c2ccccc2)c1 [Example 145] |
| > 100000 | O=C(O)C12CC(NS(=O)(=O)c3cnc(-c4ccc(F)cc4)s3)(C1)C2 [Example 68] |
| 100 to 500 | COc1cc(C(=O)O)c(F)cc1NS(=O)(=O)c1csc(-c2ccc(C3CCC(C)(C)CC3)cc2C(C)C)n1 [Example 560] |
| 100 to 500 | CC[C@H]1CC[C@H](c2ccc(-c3nc(S(=O)(=O)Nc4cc(F)c(C(=O)O)cc4OC)c(C)s3)cc2)CC1 [Example 667] |
| < 100 | COc1cc(C(=O)O)c(F)cc1NS(=O)(=O)c1csc(-c2ccc(-c3ccc(C(F)(F)C(F)(F)F)cc3)cc2C(F)(F)F)n1 [Example 784] |
| 100 to 500 | COc1cc(C(=O)O)c(F)cc1NS(=O)(=O)c1cnc(-c2ccc(C3=CC=C(F)CC3)cc2)s1 [Example 726] |
| 100 to 500 | COc1cc(C(=O)O)c(F)cc1NS(=O)(=O)c1ncc(-c2ccc(C3=CCC(C(C)(C)C)CC3)cc2)s1 (centres unmarked) [Example 633] |
| < 100 | COc1cc(C(=O)O)c(F)cc1NS(=O)(=O)c1csc(-c2ccc(-c3cc4ccccc4o3)cc2)n1 [Example 646] |
| 1000 to 100000 | Cn1nnnc1-c1ccc(NS(=O)(=O)c2cnc(-c3ccc(F)cc3)s2)cc1 [Example 35] |

| IC50 [nM] | Structure (SMILES) |
| --- | --- |
| < 100 | COc1cc(C(=O)O)c(F)cc1NS(=O)(=O)c1coc(-c2ccc(C3=CCC(C(C)C)CC3)cc2C(F)(F)F)n1 (centres unmarked) [Example 672] |
| < 100 | COc1cc(C(=O)O)c(F)cc1NS(=O)(=O)c1ccn(-c2ccc([C@H]3CC[C@H](C(C)C)CC3)cc2)n1 [Example 694] |
| < 100 | COc1cc(C(=O)O)c(F)cc1NS(=O)(=O)c1cnc(-c2ccc(C3=CCC(C(F)(F)F)CC3)cc2)s1 (centres unmarked) [Example 719] |
| 100 to 500 | COc1cc(C(=O)O)c(F)cc1NS(=O)(=O)c1csc(-c2ccc(C3CCC(C)(C)CC3)cc2C2CC2)n1 [Example 547] |
| 1000 to 100000 | COc1cc(-c2ccc(C(=O)O)cc2OC)ccc1NS(=O)(=O)c1cnc(-c2ccc(F)cc2)s1 [Example 390] |
| 1000 to 100000 | COc1ccnc(C#Cc2nc(S(=O)(=O)Nc3ccc(C(=O)O)cc3OC)cs2)c1 [Example 245] |
| 100 to 500 | COc1cc(C(=O)O)ccc1NS(=O)(=O)c1coc(-c2ccc(C3CCC(C)(C)CC3)cc2)n1 [Example 420] |
| 500 to 1000 | COc1cc(C(=O)O)c(F)cc1NS(=O)(=O)c1csc(-c2ccc(C3=CCC(C)(C)CC3)cc2-c2ccc(F)cc2)n1 [Example 555] |
| 1000 to 100000 | COc1cc(C(=O)O)ccc1NS(=O)(=O)c1csc(NCc2ccccc2)n1 [Example 164] |
| 1000 to 100000 | COc1cc(C(=O)O)ccc1N(C)S(=O)(=O)c1cnc(-c2ccc(F)cc2)s1 [Example 105] |
| 1000 to 100000 | O=C(O)[C@H]1CC[C@H](NS(=O)(=O)c2cnc(-c3ccc(F)cc3)s2)CC1 [Example 67] |
| < 100 | COc1cc(C(=O)O)ccc1NS(=O)(=O)c1csc(-c2ccc(-c3ccc(-c4ccc5c(c4)OCCO5)cc3)cc2)n1 [Example 383] |
| < 100 | COc1cc(C(=O)O)ccc1NS(=O)(=O)c1coc(-c2ccc(C3CCC(C(F)(F)F)CC3)cc2)n1 (centres unmarked) [Example 468] |
| 100 to 500 | COc1cc(C(=O)O)c(F)cc1NS(=O)(=O)c1csc(-c2ccc(C3CCC(C)(C)CC3)c(C)c2)n1 [Example 528] |
| 1000 to 100000 | COc1nc(C(=O)O)cnc1NS(=O)(=O)c1cnc(-c2ccc(F)cc2)s1 [Example 84] |
| < 100 | COc1cc(C(=O)O)c(F)cc1NS(=O)(=O)c1csc(-c2ccc(C3=CCC(C)(C)CC3)c(F)c2C(F)F)n1 [Example 582] |
| < 100 | COc1ccccc1C#Cc1nc(S(=O)(=O)Nc2cc(F)c(C(=O)O)cc2OC)cs1 [Example 243] |
| < 100 | COc1cc(C(=O)O)c(F)cc1NS(=O)(=O)c1cnc(-c2ccc([C@H]3CC[C@H](C(F)(F)F)CC3)cc2)s1 [Example 725] |
| < 100 | COc1cc(C(=O)O)ccc1NS(=O)(=O)c1csc(C#Cc2ccc(C(F)(F)F)cc2)n1 [Example 182] |
| 100 to 500 | COc1cc(C(=O)O)ccc1NS(=O)(=O)c1csc(-c2ccc(C3CCC(F)(F)CC3)cc2)n1 [Example 371] |
| 100 to 500 | COc1cc(C(=O)O)c(F)cc1NS(=O)(=O)c1cnn(-c2ccc(C3CCC(C)(C)CC3)cc2)c1 [Example 684] |

| IC50 [nM] | Structure (SMILES) |
| --- | --- |
| 100 to 500 | COc1cc(C(=O)O)ccc1NS(=O)(=O)c1cccc(-c2ccc([C@H]3CC[C@@H](C(C)(C)C)CC3)cc2)c1F [Example 479, 4-((4′-((1s,4s)-4-(tert-butyl)cyclohexyl)-2-fluoro-[1,1′-biphenyl])-3-sulfonamido)-3-methoxybenzoic acid] |
| 500 to 1000 | COc1cc(C(=O)O)ccc1NS(=O)(=O)c1csc(C2CCC(C)(C)CC2)n1 [Example 457, 4-((2-(4,4-dimethylcyclohexyl)thiazole)-4-sulfonamido)-3-methoxybenzoic acid] |
| 1000 to 100000 | O=C(O)c1ccc(NS(=O)(=O)c2cnc(-c3ccc(F)cc3)s2)c2c1OCCO2 [Example 116] |
| 1000 to 100000 | COc1cc(C(=O)O)ccc1NS(=O)(=O)c1csc(C#Cc2ccc(C#N)cc2)n1 [Example 223] |
| < 100 | COc1cc(C(=O)O)c(F)cc1NS(=O)(=O)c1csc(-c2ccc([C@H]3CC[C@@H](C(F)(F)F)CC3)cc2C(F)(F)F)n1 [Example 606] |
| 1000 to 100000 | COc1cc(C(=O)O)c(F)cc1NS(=O)(=O)c1csc(-c2ccc(-c3ccc(-c4ccc(C56CC7C[C@H](C5)C[C@H](C7)C6)cc4)cc3C(F)(F)F)cc2C(F)(F)F)n1 [Example 737] |
| 100 to 500 | COc1cc(C(=O)O)ccc1NS(=O)(=O)c1ccc(-c2ccc(F)cc2)cc1 [Example 316] |
| 1000 to 100000 | COc1cc(C(=O)O)ccc1NS(=O)(=O)c1csc(-c2cccc3ccncc23)n1 [Example 155] |
| 100 to 500 | COc1cc(C(=O)O)ccc1NS(=O)(=O)N1Cc2nc(-c3ccc(C4CCC(C)(C)CC4)cc3)sc2C1 [Example 458] |
| 100 to 500 | COc1cc(C(=O)O)ccc1NS(=O)(=O)c1csc(C2=CCC(C)(C)CC2)n1 [Example 454, 4-((2-(4,4-dimethylcyclohex-1-en-1-yl)thiazole)-4-sulfonamido)-3-methoxybenzoic acid] |
| 1000 to 100000 | O=C(O)c1ccc(NS(=O)(=O)c2cnc(-c3ccc(F)cc3)s2)c(OC(F)F)c1 [Example 49] |
| 1000 to 100000 | COc1cc(C(=O)O)ccc1NS(=O)(=O)c1csc(N2CCN(c3ccc(Br)cc3)CC2)n1 [Example 285] |
| < 100 | COc1cc(C(=O)O)c(F)cc1NS(=O)(=O)c1csc(-c2ccc([C@H]3CC[C@H](C(C)C)CC3)cc2C(F)(F)F)n1 [Example 620] |
| < 100 | COc1cc(C(=O)O)cc(F)c1NS(=O)(=O)c1csc(-c2ccc(C3CCC(C)(C)CC3)cc2C(F)(F)F)n1 [Example 671] |
| 100 to 500 | COc1ccc(-c2cccc(-c3ccc(S(=O)(=O)Nc4ccc(C(=O)O)cc4OC)s3)c2)cc1 [Example 253] |
| < 100 | COc1cc(C(=O)O)c(F)cc1NS(=O)(=O)c1csc(C#Cc2ccc(C(C)(C)C)cc2)n1 [Example 240] |
| 1000 to 100000 | COc1cc(C(=O)O)ccc1NS(=O)(=O)c1csc(C#Cc2ccc(O)cc2)n1 [Example 183] |
| 100 to 500 | COc1cc(C(=O)O)ccc1NS(=O)(=O)c1ccc(-c2cccc(-c3ccccc3)c2)s1 [Example 249, 4-((5-([1,1′-biphenyl]-3-yl)thiophene)-2-sulfonamido)-3-methoxybenzoic acid] |
| 100 to 500 | COc1cc(C(=O)O)ccc1NS(=O)(=O)N1Cc2ccc(-c3ccc(F)cc3)cc2C1 [Example 334] |
| 500 to 1000 | COc1cc(C(=O)O)c(F)cc1NS(=O)(=O)c1cc(-c2ccc(C3CCCCC3)cc2)ccn1 [Example 622] |
| 500 to 1000 | Cc1cc(NS(=O)(=O)c2cnc(-c3ccc(F)cc3)s2)ccc1C(=O)O [Example 19] |

| Structure (SMILES) | IC50 [nM] |
| --- | --- |
| COc1cc(C(=O)O)c(F)cc1NS(=O)(=O)c1csc(-c2ccc(-c3ccc(C45CC6C[C@H](C4)C[C@H](C6)C5)cc3)cc2C(F)(F)F)n1 [Example 775] | < 100 |
| COc1cc(C(=O)O)ccc1NS(=O)(=O)c1csc(N2CCN(C(=O)OC(C)(C)C)CC2)n1 [Example 305, 4-((2-(4-(tert-butoxycarbonyl)piperazin-1-yl)thiazole)-4-sulfonamido)-3-methoxybenzoic acid] | 1000 to 100000 |
